From patent US20210023223A1, “HYDROCARBON / LIPID - CAROTENOID COMPLEXES” (IP SCIENCE LIMITED, priority 2018, published 2021)

What was measured:
[1] = test system: moderately obese volunteers; assay: Lipoprotein O2 by catalymetry; assay type: in vivo, human
Method: (§1) Study Design. The total number of volunteers recruited to take part in the study was 18 (9 male and 9 female subjects) Caucasians 40-67 years old.
(§2) Products Formulated with Lycopene was developed and made by Lycotec Ltd. (Cambridge, United Kingdom). The daily dose was 1 capsule of 20 mg of lycopene, and it was taken with the main meal of the day. The period of administration was 1 month.
(§3) LDL-Px and Lipoprotein O2. Activity of serum LDL peroxidase proteins, which include IgG with superoxide dismutase activity, was measured as described previously. Plasma oxygen, which carried by blood lipids/lipoproteins was measured by catalymetry.

[2] = test system: moderately obese volunteers; assay: Tissue oxygenation StO2 by NIRS, 20 mg lycopene study; assay type: in vivo, human
Method: as §1, §2
Thenar eminence and forearm muscles of the patients were used as a tissue target for the assessment of oxygen saturation, StO2, or combined level of oxygenated haemoglobin and myoglobin. StO2 was assessed by continuous wavelength near-infrared spectroscopy, NIRS, with wide-gap second-derivative (In Spectra, Hutchinson Technology, MN, USA). The measurements were taken at different time points.
The recording was initiated after 15 min of rest in a supine position before occlusion of the brachial artery. It was then continued during stagnant ischemia induced by rapidly inflating the cuff to 50 mm Hg above systolic BP. The ischemia lasted for 3 min, and the recording period lasted for another 5 min after that until StO2 was stabilized. The area under the hyperaemic curve, AUC, of the recorded signal for the settling time in the post-occlusion period was then calculated as described earlier in % O2/minute.

[3] = Hydrophobicity as oxygen gas solubility (micellar red-ox catalymetry); assay type: physicochemical
Text: It is known that gas molecules are more soluble in hydrophobic domains than in polar structures or liquids. For example, solubility of molecular oxygen could be 4 to 10 fold greater in intact lipid membrane than in a surrounding aqueous solution [1-5]. In other words one can use the measure of soluble gas in lipids, or other […], as a measure of its hydrophobicity. This approach seem logical, however to the best of our knowledge has never been published.
Here we describe a new method to measure hydrophobicity of lipids as a function of concentration of soluble molecular oxygen within their matrix.
There are a number of ways to measure molecular oxygen in solid, crystal and indeed lipid structures. Almost all of them are physical methods such as ESR [1] or polarography. However, we decided to use much simpler and faster micellar acceleration red-ox catalymetry. This test can measure O2 in a dozen parallel samples not only lipids in model systems but also in circulating lipoproteins from human blood.
The physical expansion of the size of the oil droplets observed in the above experiments was estimated by independent measurements on changes in their hydrophobicity. […] With this approach it was possible to detect these changes when ratio lycopene to fatty acids reached 1 to 10,000 and then it was a dose dependent effect. This rise reached its plateau level at the ratio 1:4,000.

[4] = test system: B10.MLM cells (alveolar macrophages); assay: Transmission electron microscopy of cells; assay type: cell-based; conditions: 48 hours
Method: B10.MLM cells were cultured with or without lycopene for 48 hours and then harvested from the plates with trypsin-versene solution. Cell pellets obtained by centrifugation for 10 min at 1500 r.p.m. (Rotanta 460R; Hettich) were fixed with Ito-Karnovsky fixative solution, followed by post-fixation with OsO4 and treatment with aqueous uranyl acetate to provide contrast. The specimens were subsequently dehydrated in an ascending series of alcohol concentrations (50, 70, 96 and 100% ethanol), infiltrated with a 1:1 (v/v) mixture of LR White resin and 100% ethanol for 1 h and in a pure resin for 12 h at 4° C. Resin polymerization was performed at 56° C. for 24 h. Ultrathin sections were prepared, treated with a lead solution to provide contrast (Reynolds, 1963) and analysed using a JEOL 100B transmission electron microscope with an accelerating voltage of 80 kV (Jeol, Japan).

[5] = Size of Canola oil lipid droplets, microscopy; assay type: physicochemical
Text: (§4) For measurement of lipid droplets and fat globules and quantification of their size binocular microscope Olympus BX41 was used with Cell^B software for morphometric analysis. All parameters were collected from 10 randomly selected microscopic fields at ×1000).
(§5) The effect of adding lycopene into another polyunsaturated oil, in this case cod liver oil, was a dose-dependent increase in the size of its lipid structures. For Olive and Sunflower oils this increase in diameter caused by lycopene could reach 20 fold, for Canola and Cod Liver oil it was 50 or 100 fold.

[6] = test system: moderately obese volunteers; assay: LDL-Px, serum LDL peroxidase proteins; assay type: in vivo, human
Method: as §1, §2, §3

[7] = Size of Cod Liver oil lipid structures, microscopy; assay type: physicochemical
Text: as §4, §5

[8] = Acid induced degradation at pH 2.5, gas chromatography; assay type: physicochemical; conditions: lycopene 1 mg or 3 mg per 1 gram of DHA; 37° C.
[9] = Melting time at 37° C.; assay type: physicochemical
Method: (§6) Approximately 20 mg of butter, or pork fat, or beef fat, or cocoa butter, or chocolate, with or without certain concentrations of carotenoids, were placed on the surface of the laboratory slides and incubated at 37° C. in a laboratory incubator (TLK39).

[10] = Spreadability of oil drops on the surface of water; assay type: physicochemical
Method: 1. A petri dish of 13.5 cm diameter was filled to the brim with unheated water.
2. 0.3 ml of Olive or Sunflower oil was dropped onto the surface from a standardised height (30 cm) using a 1 ml pipette.
3. The resultant droplets were photographed and measured 30 sec after impact.
4. For increased reliability, the procedure was repeated 5 times.
5. Steps 1-4 were then repeated for Olive and Sunflower oils with or without carotenoids in different concentrations.

[11] = Melting time at 37° C.; assay type: physicochemical; remark: listed apart in the source
Method: as §6
Results presented in FIG. 15 show three different carotenoids—lycopene, lutein and astaxanthin, can reduce, albeit to a different degree, the melting time of dark chocolate regardless of its tempering protocols: Protocol I—28° C., Protocol II—29° C., Protocol III—30° C.

[12] = after 20 mg lycopene daily for one month

**Q.** For `CC(C)=CCC/C(C)=C/C=C/C(C)=C/C=C/C(C)=C/C=C/C=C(C)/C=C/C=C(C)/C=C/C=C(\C)CCC=C(C)C` [Lycopene], which “Lipoprotein O2” value [1, 12] is on record?
**A.** 3.44 ± 0.27 µM

**Q.** What about the “Lipoprotein O2” value ([1]; before, n = 18) of the same molecule?
**A.** 2.94 ± 0.25 µM

**Q.** And the StO2 [2, 12]?
**A.** 80.4 ± 5.3^ AUC mm

**Q.** What about the StO2 ([2]; before, n = 18) of the same molecule?
**A.** 64.1 ± 4.9^ AUC mm

**Q.** And the “Hydrophobicity in terms of gas solubility” value (shortened to “Hydrophobicity in terms”) ([3]; ratio of molecules of lycopene per molecules of fatty acids 1:3,000)?
**A.** 248-287 10^−6 M O2 per mg of sunflower oil

**Q.** And the “Hydrophobicity in terms” value ([3]; ratio of molecules of lycopene per molecules of fatty acids 1:4,000)?
**A.** 275-321 10^−6 M O2 per mg of sunflower oil

**Q.** What about the “Hydrophobicity in terms” value ([3]; ratio of molecules of lycopene per molecules of fatty acids 1:5,000) of the same molecule?
**A.** 197-198 10^−6 M O2 per mg of sunflower oil

**Q.** And the “Hydrophobicity in terms” value ([3]; ratio of molecules of lycopene per molecules of fatty acids 1:10,000)?
**A.** 180-182 10^−6 M O2 per mg of sunflower oil

**Q.** What about the “Hydrophobicity in terms” value ([3]; ratio of molecules of lycopene per molecules of fatty acids 1:20,000) of the same molecule?
**A.** 143-155 10^−6 M O2 per mg of sunflower oil

**Q.** What about the Mitochondrial structures [4] of the same molecule?
**A.** significantly increased both in size and their numbers

**Q.** What about the “Increase in lipid droplet diameter” value [5] of the same molecule?
**A.** 50 fold

**Q.** What about the LDL-Px [6, 12] of the same molecule?
**A.** 286 ± 29^ ELISA × 10^3

**Q.** And the LDL-Px ([6]; before, n = 18)?
**A.** 545 ± 49^ ELISA × 10^3

**Q.** And the “Increase in lipid droplet diameter” value [7]?
**A.** 100 fold

**Q.** And the “Degradation of DHA at pH2.5” value [8]?
**A.** completely prevented

**Q.** And the “Reduction of melting time of cocoa butter” value ([9]; 0.3 mg per 1 g)?
**A.** more than 8 fold

**Q.** And the “Reduction of melting time of white chocolate” value ([9]; 0.3 mg per 1 g of the chocolate)?
**A.** under 3 fold

**Q.** And the “Melting time of white chocolate” value ([9]; 0.3 mg per 1 g of the chocolate, control 11 minutes)?
**A.** 4 min

**Q.** And the “Melting time of cocoa butter” value ([9]; 0.3 mg per 1 g, control 16.5 minutes)?
**A.** 2 min

**Q.** And the “Diameter of spread lipid drops relative to intact oil” value ([10]; 1 molecule of lycopene within about 120,000 molecules of oil lipids)?
**A.** 6-8 fold

**Q.** What about the “Increase of spreadability on the surface of the water” value ([10]; olive oil) of the same molecule?
**A.** 11 fold

**Q.** What about the “Melting time of dark chocolate” value [11] of the same molecule?
**A.** 8 min
